Assay results from US20120316105A1, “Polymyxin Derivates Useful As Antibacterial Agents” (priority 2011, published 2012).
Like-named read-outs stand apart in the source and are kept apart here. Bridge positions count the residues as written; N and C are the ends. Square brackets hold non-standard residues; d marks the D form. Peptide text beside a SMILES is read from it. * marks the point of attachment. X3 = O=C(c1ccnc(-c2cccc(Cl)c2)c1)*; X35 = N#Cc1ccc(C(=O)*)cc1-c1ccccc1; 2Naphthoyl = O=C(c1ccc2ccccc2c1)*; X31 = O=C(c1ccnc(-c2ccccc2Cl)c1)*; X5 = O=C(c1ccnc(-c2cccc(F)c2)c1)*; X7 = O=C(c1ccnc(-c2ccccc2F)c1)*; Dab = NCC[C@H](N)C(=O)O; Dap = NC[C@H](N)C(=O)O

Key:
[1] = test system: EC-1, mouse virulent strain of Escherichia coli; type: cell-based; conditions: E. coli EC-1; overnight incubation, lower of duplicate values; trifluoroacetate salt (Example 1 and PMB sulfate)
Experimental: (§1) Minimum bactericidal concentration (MBC, mg/L), minimum inhibitory concentration (MIC, mg/L), and human renal proximal tubule epithelial cell line cytotoxicity concentration 50% (hRPTEC, TC50, micromolar) for compounds of Formula I are listed in Table 2. The compounds of Formula I were tested as the corresponding trifluoroacetate salt except for Example 1 which was tested as the sulfate salt. For Table 2 below: PMB=polymyxin B as the sulfate salt (Bedford Laboratories, pharmaceutical grade); PMB1=polymyxin B1 as the trifluoroacetate salt; Nona=polymyxin B nonapeptide as the trifluoroacetate salt. PMB1 and Nona were prepared using the solid phase methodology described in the experimental section herein.
(§2) The in vitro antibacterial activity of compounds of Formula I was evaluated by MIC testing according to Clinical and Laboratory Standards Institute (CLSI). See: Clinical and Laboratory Standards Institute. Methods for Dilution Antimicrobial Susceptibility Tests for Bacteria that Grow Aerobically; Approved Standard-Eighth Edition. CLSI document M7-A8 [ISBN 1-56238-689-1]. Clinical and Laboratory Standards Institute, 940 West Valley Road, Suite 1400, Wayne, Pa. 19087-1898 USA, 2006; also Clinical and Laboratory Standards Institute. Performance Standards for Antimicrobial Susceptibility Testing; Twentieth Informational Supplement. CLSI document M100-S20 [ISBN 1-56238-716-2]. Clinical and Laboratory Standards Institute. Methods for Determining Bactericidal Activity of Antimicrobial Agents; Approved Guideline. CLSI document M26-A (ISBN 1-56238-384-1). CLSI, 940 West Valley Road, Suite 1400, Wayne, Pa. 19087-1898 USA, 1999.
(§3) The MIC determination is a standard laboratory method for evaluating the antibacterial activity of a compound. The MIC represents the lowest drug concentration that inhibits visible growth of bacteria following overnight incubation. […] Typically, the drug concentration range is broken down into 2-fold increments (e.g. 0.06 mg/L, 0.12 mg/L, 0.25 mg/L, 0.50 mg/L, 1.0 mg/L, etc.) and the various drug concentrations are all individually incubated overnight with approximately the same number of bacteria. The MIC is then determined by visually inspecting the drug effect at each concentration, and identifying the lowest drug concentration that has inhibited bacterial growth as compared to the drug free control. Typically, bacteria continue to grow at drug concentrations lower than the MIC and don't grow at concentrations at and above the MIC.
(§4) The MIC values described in Table 2 below were derived from assays wherein each test compound was evaluated in duplicate. In cases where the duplicate values varied by 0-2-fold, the lower of the two values was reported below. Generally speaking, if the duplicate values varied by more than 2-fold, the assay was considered non-valid and was repeated until the variation between duplicate runs was ≦2-fold. In line with the CLSI guidelines referred to above, both control organisms and reference compounds were utilized in each MIC assay to provide proper quality control. MIC values generated with these control organisms and reference compounds were required to fall within a defined range for the assay to be considered valid and be included herein. Those skilled in the art will recognize that MIC values can and do vary from experiment to experiment. Generally speaking, it should be recognized that MIC values often vary +/−2-fold from experiment to experiment. While a single MIC is reported for each compound and each microorganism, the reader should not conclude that each compound was only tested once. Several of the compounds were subjected to multiple tests. The data reported in Table 2 is reflective of the compounds relative activity and different MICs may have been generated on these occasions in line with the guidelines described above.
The following bacterial strains were used in these MIC determinations:
EC-1 is a mouse virulent strain of Escherichia coli.

[2] = test system: AB-1649, polymyxin-resistant clinical isolate of Acinetobacter baumannii; type: cell-based; conditions: AB-1649, polymyxin-resistant clinical isolate of
Experimental: as §1, §2
AB-1649 is a polymyxin-resistant clinical isolate of Acinetobacter baumannii obtained from JMI labs (www.jmilabs.com);

[3] = Cytotoxicity assay (LDH release), hRPTEC; type: cell-based, human; conditions: human
Experimental: as §1
Human Renal Proximal Tubule Epithelial cells (hRPTEC) were obtained from Lonza (Walkersville, Md., USA) and cultured in REGM (Renal Epithelial Cell Basal Medium supplemented with human epithelial growth factor, hydrocortisone, epinephrine, insulin, triiodothyronine, transferrin, gentamycin/amphotericin-B, and fetal bovine serum). The hRPTEC cells were seeded into 96-well plates and incubated at 37° C. in 5% CO2. Following a growth period of 72 hours, cells were treated with compounds at 100, 67, 44, 30, 20 and 13 micromolar for 24 hours at 37° C. in 5% CO2. The cell supernatant was then harvested for determination of LDH (lactate dehydrogenase) production. The Cytotoxicity Detection Kit from Roche was used for the measurement of LDH activity released from damaged cells. The Toxic Concentration 50% (TC50, micromolar) values were determined for each compound and compared to the control compounds (polymyxin B was used as a positive control and polymyxin B nonapepetide was used as negative control).

[4] = test system: PA-1646, polymyxin-resistant clinical isolate of Pseudomonas aeruginosa; type: cell-based; conditions: PA-1646, polymyxin-resistant clinical isolate of
Experimental: as §1, §2
PA-1646 is a polymyxin-resistant clinical isolate of Pseudomonas aeruginosa obtained from JMI labs (www.jmilabs.com);

[5] = test system: AB-1649, polymyxin-resistant clinical isolate of Acinetobacter baumannii; type: cell-based; conditions: AB-1649, polymyxin-resistant clinical isolate of; remark: listed apart in the source
Experimental: as §1, §2, §3, §4
(§5) The following bacterial strains were used in these MIC determinations: […]

[6] = test system: PA-1646, polymyxin-resistant clinical isolate of Pseudomonas aeruginosa; type: cell-based; conditions: PA-1646, polymyxin-resistant clinical isolate of; remark: listed apart in the source
Experimental: as §1, §2, §3, §4, §5

[7] = test system: AB-3167, clinical isolate of Acinetobacter baumannii; type: cell-based
Experimental: as §1, §2, §3, §4, §5

[8] = test system: Pseudomonas aeruginosa strain PA01; type: cell-based; conditions: strain
Experimental: as §1, §2, §3, §4, §5

Compound: CC(C)C[C@@H]1NC(=O)[C@@H](Cc2ccccc2)NC(=O)[C@H](CCN)NC(=O)[C@@H](NC(=O)[C@H](CN)NC(=O)[C@@H](NC(=O)[C@H](CCN)NC(=O)c2ccc(C#N)c(-c3ccccc3)c2)[C@@H](C)O)CCNC(=O)[C@H]([C@@H](C)O)NC(=O)[C@H](CCN)NC(=O)[C@H](CCN)NC1=O [Example 2] (X35-[Dab]T[Dap][Dab][Dab][dF]L[Dab][Dab]T; lactam 4-C)
- EC-1 MIC [1]: 0.125 mg/L
- AB-1649 MBC [2]: 0.5 mg/L
- CC50 at 24 h [3]: 39 µM
- PA-1646 MBC [4]: 4 mg/L
- AB-1649 MIC [5]: 0.5 mg/L
- PA-1646 MIC [6]: 2 mg/L
- AB-3167 MIC ([7]; AB-3167, clinical isolate of): 0.25 mg/L
- PA01 MIC [8]: 0.25 mg/L

Compound: CC(C)C[C@@H]1NC(=O)[C@@H](Cc2ccccc2)NC(=O)[C@H](CCN)NC(=O)[C@@H](NC(=O)[C@H](CN)NC(=O)[C@@H](NC(=O)[C@H](CCN)NC(=O)c2ccnc(-c3cccc(Cl)c3)c2)[C@@H](C)O)CCNC(=O)[C@H]([C@@H](C)O)NC(=O)[C@H](CCN)NC(=O)[C@H](CCN)NC1=O [Example 3] (X3-[Dab]T[Dap][Dab][Dab][dF]L[Dab][Dab]T; lactam 4-C)
- EC-1 MIC [1]: 0.125 mg/L
- AB-1649 MBC [2]: 0.5 mg/L
- CC50 at 24 h [3]: 34 µM
- PA-1646 MBC [4]: 1 mg/L
- AB-1649 MIC [5]: 0.5 mg/L
- PA-1646 MIC [6]: 1 mg/L
- AB-3167 MIC ([7]; AB-3167, clinical isolate of): 0.25 mg/L
- PA01 MIC [8]: 0.5 mg/L

Compound: CC(C)C[C@@H]1NC(=O)[C@@H](Cc2ccccc2)NC(=O)[C@H](CCN)NC(=O)[C@@H](NC(=O)[C@H](CN)NC(=O)[C@@H](NC(=O)[C@H](CCN)NC(=O)c2ccnc(-c3ccccc3Cl)c2)[C@@H](C)O)CCNC(=O)[C@H]([C@@H](C)O)NC(=O)[C@H](CCN)NC(=O)[C@H](CCN)NC1=O [Example 4] (X31-[Dab]T[Dap][Dab][Dab][dF]L[Dab][Dab]T; lactam 4-C)
- EC-1 MIC [1]: 0.125 mg/L
- AB-1649 MBC [2]: 1 mg/L
- CC50 at 24 h [3]: 86 µM
- PA-1646 MBC [4]: 16 mg/L
- AB-1649 MIC [5]: 1 mg/L
- PA-1646 MIC [6]: 4 mg/L
- AB-3167 MIC ([7]; AB-3167, clinical isolate of): 0.25 mg/L
- PA01 MIC [8]: 0.5 mg/L

Compound: CC(C)C[C@@H]1NC(=O)[C@@H](Cc2ccccc2)NC(=O)[C@H](CCN)NC(=O)[C@@H](NC(=O)[C@H](CN)NC(=O)[C@@H](NC(=O)[C@H](CCN)NC(=O)c2ccnc(-c3ccccc3F)c2)[C@@H](C)O)CCNC(=O)[C@H]([C@@H](C)O)NC(=O)[C@H](CCN)NC(=O)[C@H](CCN)NC1=O [Example 5] (X7-[Dab]T[Dap][Dab][Dab][dF]L[Dab][Dab]T; lactam 4-C)
- EC-1 MIC [1]: 0.125 mg/L
- AB-1649 MBC [2]: 1 mg/L
- CC50 at 24 h [3]: 83 µM
- PA-1646 MBC [4]: 4 mg/L
- AB-1649 MIC [5]: 1 mg/L
- PA-1646 MIC [6]: 2 mg/L
- AB-3167 MIC ([7]; A. baumannii AB-3167, overnight incubation, lower of duplicate values, trifluoroacetate salt (Example 1 and PMB sulfate)): 0.125 mg/L
- PA01 MIC [8]: 0.5 mg/L

Compound: CC(C)C[C@@H]1NC(=O)[C@@H](Cc2ccccc2)NC(=O)[C@H](CCN)NC(=O)[C@@H](NC(=O)[C@H](CN)NC(=O)[C@@H](NC(=O)[C@H](CCN)NC(=O)c2ccc3ccccc3c2)[C@@H](C)O)CCNC(=O)[C@H]([C@@H](C)O)NC(=O)[C@H](CCN)NC(=O)[C@H](CCN)NC1=O [Example 6] (2Naphthoyl-[Dab]T[Dap][Dab][Dab][dF]L[Dab][Dab]T; lactam 4-C)
- EC-1 MIC [1]: 0.125 mg/L
- AB-1649 MBC [2]: 2 mg/L
- CC50 at 24 h [3]: 51 µM
- PA-1646 MBC [4]: 16 mg/L
- AB-1649 MIC [5]: 2 mg/L
- PA-1646 MIC [6]: 4 mg/L
- AB-3167 MIC ([7]; AB-3167, clinical isolate of): 0.25 mg/L
- PA01 MIC [8]: 0.5 mg/L

Compound: CC(C)C[C@@H]1NC(=O)[C@@H](Cc2ccccc2)NC(=O)[C@H](CCN)NC(=O)[C@@H](NC(=O)[C@H](CN)NC(=O)[C@@H](NC(=O)[C@H](CCN)NC(=O)c2ccnc(-c3cccc(F)c3)c2)[C@@H](C)O)CCNC(=O)[C@H]([C@@H](C)O)NC(=O)[C@H](CCN)NC(=O)[C@H](CCN)NC1=O [Example 7] (X5-[Dab]T[Dap][Dab][Dab][dF]L[Dab][Dab]T; lactam 4-C)
- EC-1 MIC [1]: 0.125 mg/L
- AB-1649 MBC [2]: 1 mg/L
- CC50 at 24 h [3]: 41 µM
- PA-1646 MBC [4]: 8 mg/L
- AB-1649 MIC [5]: 1 mg/L
- PA-1646 MIC [6]: 2 mg/L
- AB-3167 MIC ([7]; AB-3167, clinical isolate of): 0.25 mg/L
- PA01 MIC [8]: 0.5 mg/L
